Among the data in patent US20100129418A1, “METHOD OF INDUCING NEGATIVE CHEMOTAXIS USING AN ELLAGITANNIN OR GALLOTANNIN” (priority 2008, published 2010) are fold induction values, retold here.

The assay has as its system neutrophils. The assay is described as follows: Chemorepulsion/chemoattraction transwell migration assay (Neuroprobe ChemoTx plates). The class given is cell-based. The note with it: Homo sapiens, Neutrophil, 1 h, 1.1 mg/ml ellagic acid, CR mode, 1 hour at 37° C., read-out: fold induction of chemorepulsion as compared to media. As for the experimental part: The chemorepulsive activity of ellagic acid was determined as follows: • 1. Prior to beginning the assay, the following were prepared: • a. 0.5% Fetal Calf Serum (FCS) in Iscove's Modified Dulbecco's Medium (IMDM) (Assay Medium) (Both from ATCC). • b. Migratory cells at a concentration of 2×10^7 cells/ml in Assay Medium. • c. The indicated dilutions of ellagic acid Assay Medium. • 2. The assay plates were Neuroprobe ChemoTx plates, part number 206-3 (3 um pore size) for neutrophils. • 3. The plates were removed from packaging, leaving the membrane behind. • 4. 31 μl of the following solutions were pipetted into each well: • a. For media controls and for chemorepulsion samples, Assay Medium was used. • b. For chemoattraction samples, appropriate dilution of ligand was used. • 5. The membrane was carefully placed onto the plate, starting at one side and then slowly lowering the other edge onto the plate. • 6. 29 μl of the following were pipetted onto the top of each circle: • a. For media controls and chemoattraction samples, Assay Medium was used. • b. For chemorepulsion samples, the appropriate dilution of ligand was used. • 7. […] The assay plates were processed by Guava Easy Cyte Plus (using via cell count for read out). • 1. […] The Guava Easy Cyte Plus was used to read the plate and quantify the number of migrated cells. […]

As to `O=c1oc2c(O)c(O)cc3c(=O)oc4c(O)c(O)cc1c4c23` [ellagic acid, 2,3,7,8-tetrahydroxy-chromeno[5,4,3-cde]chromene-5,10-dione], the fold induction at 1100 µg/mL is about 55.
